What all share (assay): NCI tumour cell line growth inhibition, 48 h
Experiment [1] concerns ACHN.
Experiment [2] deals with CAKI-1.
Experiment [3] deals with HCC 2998.
The test system of experiment [4] is HOP-62.
The subject of experiment [5] is IGROV-1.
For experiment [6], the system named is LXFL 529.
Experiment [7] relates to Malme-3M.
Experiment [8] has as its system OVCAR-3.
Experiment [9] concerns SN12C.
Experiment [10] relates to SR.
Experiment [11] relates to SW-620.
Experiment [12] deals with UACC-62.
In experiment [13] the test system is A498.
Experiment [14] concerns CCRF-CEM.
In experiment [15] the test system is COLO 205.
In experiment [16] the test system is HT-29.
For experiment [17], the system named is NCI-H522.
Experiment [18] has as its system RPMI-8226.
For experiment [19], the system named is MDA-MB-231.
Experiment [20] relates to T47D.

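Each compound was tested at five concentrations against cells in 96-well plates for 48 hours. Abbreviation: GI50, concentration required for 50% inhibition of growth.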 Activity calls are given as the source filed them. Cut-off read from the data, not from the text of the source: active = GI50 up to about 1.1 µM and inactive = higher.

As for `COC1CCCc2c(OC(C)=O)ccc(OC(C)=O)c21` (configuration not stated), the GI50 in experiment [1], in [2], in experiment [3], in experiment [4], in experiment [5] and in [6] was > 100 µM (inactive) in each case. The GI50 in [7], in experiment [8], in experiment [9], in experiment [10], in [11] and in experiment [12] was > 100 µM (inactive) in each case.

As to `CN(C)CCC(CCN(C)C)=NO`, the GI50 in [13], in experiment [1], in experiment [2], in [14], in experiment [15] and in [3] was > 100 µM (inactive) each time. Moreover, the GI50 in [4], in experiment [16], in [5], in experiment [6], in experiment [7] and in experiment [17] was > 100 µM (inactive) throughout. Further, the GI50 in experiment [8], in [18], in experiment [9], in experiment [11] and in [12] was > 100 µM (inactive) throughout.

As to `CSC1=NC=CCN1C`, the GI50 in experiment [13], in [1], in experiment [2], in [14], in [15] and in experiment [3] was > 100 µM (inactive) throughout. Besides, the GI50 in [4], in [16], in experiment [5], in [6], in experiment [7] and in experiment [17] was > 100 µM (inactive) in each case. The GI50 in experiment [8], in experiment [18], in [9], in experiment [11] and in experiment [12] was > 100 µM (inactive) in each case.

Take `NC(=O)/N=C1\NC(Cc2ccccc2)C(=O)N1Cc1ccccc1` (configuration not stated): the GI50 in experiment [1] is 80.4 µM (inactive); in experiment [14] it was > 100 µM (inactive); in [15] it was > 100 µM (inactive); in experiment [3] it was > 100 µM (inactive); in experiment [4] it was > 100 µM (inactive); in experiment [16] it was > 100 µM (inactive). Moreover, the GI50 in experiment [5], in [6], in [8], in experiment [18], in experiment [9] and in experiment [10] was > 100 µM (inactive) throughout. For the same compound, the GI50 in experiment [11] and in [12] was > 100 µM (inactive) throughout.

In the case of `CCOc1cccc2cccnc12`, the GI50 in experiment [1], in experiment [14], in experiment [15], in experiment [3], in experiment [4] and in experiment [16] was > 100 µM (inactive) throughout. In addition, the GI50 in experiment [5], in experiment [6], in experiment [7], in [17], in [8] and in experiment [18] was > 100 µM (inactive) throughout. For the same compound, the GI50 in experiment [9], in experiment [11] and in experiment [12] was > 100 µM (inactive) throughout.

For the compound `O=C(O)c1ccccc1NS(=O)(=O)c1ccc(Cl)cc1`, the GI50 in [1], in experiment [2], in experiment [14], in [15], in experiment [3] and in [4] was > 100 µM (inactive) in each case. Further, the GI50 in [16] is > 100 µM (inactive); in [5], > 100 µM (inactive); in experiment [6], > 100 µM (inactive); in [7], > 100 µM (inactive); in experiment [17], 54 µM (inactive); in [18], > 100 µM (inactive). Further, the GI50 in experiment [9], in [11] and in experiment [12] was > 100 µM (inactive) throughout.

With `CC1=NC(C(C)C)C(=O)O1` (configuration not stated), the GI50 was > 100 µM (inactive) in experiment [13]; > 100 µM (inactive) in experiment [1]; > 100 µM (inactive) in experiment [2]; > 100 µM (inactive) in experiment [14]; 72.3 µM (inactive) in experiment [15]; > 100 µM (inactive) in experiment [3]. The GI50 in experiment [4] is > 100 µM (inactive); in experiment [16] it was 61.1 µM (inactive); in experiment [5] it was > 100 µM (inactive); in experiment [6], > 100 µM (inactive); in [7] it was > 100 µM (inactive); in experiment [17], > 100 µM (inactive). For the same compound, the GI50 in experiment [8] was > 100 µM (inactive); in experiment [18], 22.1 µM (inactive); in [9], > 100 µM (inactive); in experiment [11], 13.1 µM (inactive); in [12], > 100 µM (inactive).

Take `COc1cc(C)cc2c(-c3c(O)cc(O)c4c3C[C@H](C)N[C@H]4C)cc(-c3cc(-c4c(O)cc(O)c5c4C[C@H](C)N[C@H]5C)c4cc(C)cc(OC)c4c3O)c(O)c12`: the GI50 in experiment [13], in experiment [1], in [2], in experiment [14], in experiment [15] and in experiment [3] was > 100 µM (inactive) throughout. For the same compound, the GI50 is 72.3 µM (inactive) in experiment [4]; 36 µM (inactive) in [16]; > 100 µM (inactive) in [5]; > 100 µM (inactive) in experiment [19]; > 100 µM (inactive) in experiment [7]; > 100 µM (inactive) in experiment [17]. Further, the GI50 was > 100 µM (inactive) in experiment [8]; 83.4 µM (inactive) in [18]; > 100 µM (inactive) in experiment [9]; > 100 µM (inactive) in [10]; > 100 µM (inactive) in experiment [11]; 63.8 µM (inactive) in [20]. In [12], the GI50 is > 100 µM (inactive).

With `O=c1[nH]/c(=C/c2ccc(OCc3ccccc3)cn2)c(=O)[nH]/c1=C/c1ccc(O)cc1`, the GI50 in experiment [13] is > 37.2 µM (inactive); in [1], 1.67 µM (inactive); in experiment [2] it was 0.834 µM (active); in experiment [14], 0.0454 µM (active); in experiment [15], 1.45 µM (inactive); in experiment [3] it was 0.991 µM (active). Besides, the GI50 in experiment [4] is 1.88 µM (inactive); in [16], 1.48 µM (inactive); in experiment [5] it was 0.764 µM (active); in [19] it was 1.6 µM (inactive); in [7], 2.34 µM (inactive); in [17] it was 0.276 µM (active). Moreover, the GI50 was 1.27 µM (inactive) in [8]; 0.766 µM (active) in experiment [18]; 1.04 µM (active) in experiment [9]; 1.4 µM (inactive) in experiment [10]; 0.537 µM (active) in experiment [11]; 1.76 µM (inactive) in experiment [20]. The GI50 in [12] is 1.58 µM (inactive).

Regarding `CC(C)N1CN(c2ccccc2)C2(CCN(CCCC(=O)c3ccc(F)cc3)CC2)C1=O`, the GI50 in [13] was 2.97 µM (inactive); in experiment [1], 3.9 µM (inactive); in experiment [2], 4.13 µM (inactive); in experiment [14], 1.83 µM (inactive); in experiment [15] it was 0.483 µM (active); in experiment [3], 7.14 µM (inactive). In addition, the GI50 in experiment [4] is 3.7 µM (inactive); in experiment [16] it was 1.79 µM (inactive); in experiment [5], 3.85 µM (inactive); in experiment [19], 9.14 µM (inactive); in experiment [7], 14.7 µM (inactive); in experiment [17], 21 µM (inactive). Also, the GI50 is 22 µM (inactive) in [8]; 10.3 µM (inactive) in experiment [18]; 4.68 µM (inactive) in experiment [9]; 18.1 µM (inactive) in experiment [10]; 4.99 µM (inactive) in [11]; 6.07 µM (inactive) in experiment [20]. For the same compound, the GI50 in [12] was 17.9 µM (inactive).

Turning to `CCOC(=O)c1cccc(/N=N/Nc2cccc(C(=O)OCC)c2)c1`, the GI50 in experiment [13] was 30.8 µM (inactive); in experiment [1], 53.8 µM (inactive); in [2], 42 µM (inactive); in [14], > 100 µM (inactive); in experiment [15], > 100 µM (inactive); in experiment [3] it was > 100 µM (inactive). Besides, the GI50 in experiment [4] was 9.12 µM (inactive); in [16], 52.8 µM (inactive); in [5] it was 38.9 µM (inactive); in experiment [19] it was 17.8 µM (inactive); in experiment [7], 43.8 µM (inactive); in experiment [17], 23.9 µM (inactive). For the same compound, the GI50 in [8] was 26.8 µM (inactive); in experiment [18], > 100 µM (inactive); in [9], 30.1 µM (inactive); in experiment [10], 1.09 µM (active); in experiment [11], 68.7 µM (inactive); in experiment [20], > 100 µM (inactive). The GI50 in experiment [12] was 71.8 µM (inactive).

As for `O=C(O)Cc1cccc2c(=O)c3cccc([N+](=O)[O-])c3oc12`, the GI50 in experiment [13], in [1], in experiment [2], in [14], in experiment [15] and in experiment [3] was > 100 µM (inactive) in each case. Besides, the GI50 in experiment [4], in experiment [16], in [5], in experiment [19], in experiment [7] and in experiment [17] was > 100 µM (inactive) throughout. In addition, the GI50 in experiment [8], in experiment [18], in experiment [9], in [10], in experiment [11] and in [20] was > 100 µM (inactive) in each case. Also, the GI50 in experiment [12] is > 100 µM (inactive).

Values taken from ChEMBL document CHEMBL1201862, “PubChem BioAssay data set” (2004).
